The values that follow come from ChEMBL document CHEMBL1136698, “Peptoid mimics of agouti related protein” (Bioorg Med Chem Lett, 2003).

The target in assay [1] is T1, Melanocortin receptor 4 (Homo sapiens, UniProt P32245). The assay is described as follows: Binding affinity against human melanocortin 4 receptor (hMC4R) using [125I]- ([Nle4]alpha-MSH) as radioligand.
The target in assay [2] is T1, Melanocortin receptor 4. Briefly: Binding affinity against human melanocortin 4 receptor (hMC4R) using [125I]- agouti related protein (AGRP) as radioligand.
In assay [3] the target is T1, Melanocortin receptor 4. The assay is described as follows: Binding affinity against human melanocortin 4 receptor (hMC4R) using [125I]- agouti related protein (AGRP) as radioligand; NA: Not active.
Assay [4] addresses T1, Melanocortin receptor 4. Briefly: Binding affinity against human melanocortin 4 receptor (hMC4R) using [125I]- ([Nle4]alpha-MSH) as radioligand; NA: Not active.
Assay [5] concerns the target T2, Melanocortin receptor 3 (Homo sapiens, UniProt P41968). Briefly: Inhibitory activity against hMC3R (human melanocortin receptor) using [125I]-[Nle4] alpha-MSH as radioligand.
The target of assay [6] is T1, Melanocortin receptor 4. Briefly: Inhibitory activity against hMC4R (human melanocortin receptor) using [125I]-[Nle4] alpha-MSH as radioligand.
The target in assay [7] is T1, Melanocortin receptor 4. Briefly: Binding affinity against human melanocortin 4 receptor (hMC4R) using [125I]- NDP-MSH as radioligand.
Assay [8] deals with T2, Melanocortin receptor 3. The assay is described as follows: Inhibitory activity against hMC3R (human melanocortin receptor) using I-AGRP as radioligand.
Assay [9] deals with T1, Melanocortin receptor 4. Briefly: Inhibitory activity against hMC4R (human melanocortin receptor) using I-AGRP as radioligand.
The target of assay [10] is T3, Melanocyte-stimulating hormone receptor (Homo sapiens, UniProt Q01726). Briefly: Inhibitory activity against hMC1R (human melanocortin receptor) using [125I]-[Nle4] alpha-MSH as radioligand.
T3 sequence (Q01726 whole entry): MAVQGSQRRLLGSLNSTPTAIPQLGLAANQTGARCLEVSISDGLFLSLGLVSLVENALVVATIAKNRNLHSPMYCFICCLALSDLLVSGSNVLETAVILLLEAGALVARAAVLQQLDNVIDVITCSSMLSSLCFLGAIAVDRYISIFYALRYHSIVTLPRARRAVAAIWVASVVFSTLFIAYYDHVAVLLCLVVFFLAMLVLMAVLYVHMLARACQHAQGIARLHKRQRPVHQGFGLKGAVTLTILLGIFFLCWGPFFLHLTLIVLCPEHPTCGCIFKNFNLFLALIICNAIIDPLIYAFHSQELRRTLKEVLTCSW
Assay [11] deals with T3, Melanocyte-stimulating hormone receptor. Briefly: Inhibitory activity against hMC1R (human melanocortin receptor) using [125I]- ASIP Y radioligand.

T1 sequence (P32245 whole entry): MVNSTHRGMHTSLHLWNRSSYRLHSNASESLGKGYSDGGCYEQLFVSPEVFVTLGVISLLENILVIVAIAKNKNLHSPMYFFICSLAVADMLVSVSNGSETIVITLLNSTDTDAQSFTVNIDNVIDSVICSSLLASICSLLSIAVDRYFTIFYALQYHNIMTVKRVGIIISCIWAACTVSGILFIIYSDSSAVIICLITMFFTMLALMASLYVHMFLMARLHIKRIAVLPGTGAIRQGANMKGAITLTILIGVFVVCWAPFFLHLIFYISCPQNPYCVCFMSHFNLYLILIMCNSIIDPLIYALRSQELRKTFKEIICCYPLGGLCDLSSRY
T2 sequence (P41968 whole entry): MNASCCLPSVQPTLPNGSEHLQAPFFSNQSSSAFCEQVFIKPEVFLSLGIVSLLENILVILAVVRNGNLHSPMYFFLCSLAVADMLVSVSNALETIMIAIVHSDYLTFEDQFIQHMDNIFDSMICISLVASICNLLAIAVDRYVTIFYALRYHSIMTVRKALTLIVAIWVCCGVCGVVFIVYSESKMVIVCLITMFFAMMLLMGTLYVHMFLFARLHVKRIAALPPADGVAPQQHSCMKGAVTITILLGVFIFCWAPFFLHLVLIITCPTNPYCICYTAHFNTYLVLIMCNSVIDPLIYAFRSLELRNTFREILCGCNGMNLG

What is called IC50 is the point on the concentration scale where inhibition reaches its midpoint. A low value points to greater potency. On to `C[C@H](c1ccccc1)N(CC(N)=O)C(=O)CN(Cc1ccccc1)C(=O)CNCCCN=C(N)N`, for which the IC50 in assay [1] and in assay [2] was > 100 µM each time.
For `C[C@@H](c1ccccc1)N(CC(N)=O)C(=O)CN(Cc1ccccc1)C(=O)CNCCCN=C(N)N`, the IC50 entry in assay [3] and in assay [4] was “Not Active” throughout.
As to `CC(C)(C(N)=O)N(Cc1ccccc1)C(=O)CN(CCc1ccccc1)C(=O)CNCCCN=C(N)N`, in [1], the half-maximal inhibitory concentration (IC50) is > 100 µM.
In the case of `C[C@H](c1ccccc1)N(CC(N)=O)C(=O)CN(C(=O)CNCCCNC(=N)N)C(c1ccccc1)c1ccccc1`, the concentration for half-maximal inhibition (IC50) is 48 µM in assay [5]; 3.1 µM in assay [6]; 2.1 µM in [7]; 3.1 µM in assay [1]; > 50 µM in [8]; 1.9 µM in assay [9]. Moreover, the concentration for half-maximal inhibition (IC50) in assay [2] came to 1.9 µM; in assay [10], 9.1 µM; in assay [11], 25 µM.
Consider `NC(=O)CN(Cc1ccccc1)C(=O)CN(Cc1ccccc1)C(=O)CNCCCN=C(N)N`, for which the IC50 in assay [1] and in assay [2] was > 100 µM each time.
